Measured values taken from ChEMBL document CHEMBL1201862, “PubChem BioAssay data set” (2004).
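These data come from cells grown in 96-well plates and exposed to compound for 48 hours at five concentrations. Abbreviation: GI50, concentration required for 50% inhibition of growth.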 Active and inactive are the calls of the source. Cut-off read from the data, not from the text of the source: active = GI50 up to about 1.1 µM and inactive = higher.

Legend:
Assay in all cases: NCI anticancer screen, dose series, 48 h
LOX IMVI = tested on: LOX IMVI
SF-295 = tested on: SF-295
NCI-H23 = tested on: NCI-H23
SK-MEL-5 = tested on: SK-MEL-5
HOP-62 = tested on: HOP-62
DLD-1 = tested on: DLD-1
HT-29 = tested on: HT-29
SR = tested on: SR
MOLT-4 = tested on: MOLT-4
COLO 205 = tested on: COLO 205
LXFL 529 = tested on: LXFL 529
A498 = tested on: A498
SW-620 = tested on: SW-620
UACC-62 = tested on: UACC-62
HCT-15 = tested on: HCT-15
RXF 393 = tested on: RXF 393
SK-MEL-28 = tested on: SK-MEL-28
UACC-257 = tested on: UACC-257
HOP-18 = tested on: HOP-18
UO-31 = tested on: UO-31
DMS-114 = tested on: DMS-114
OVCAR-4 = tested on: OVCAR-4
SNB-75 = tested on: SNB-75
EKVX = tested on: EKVX
HCC 2998 = tested on: HCC 2998
HCT-116 = tested on: HCT-116
KM12 = tested on: KM12
K562 = tested on: K562
ACHN = tested on: ACHN
HL-60 = tested on: HL-60
M14 = tested on: M14
NCI-H460 = tested on: NCI-H460
KM-20L2 = tested on: KM-20L2
RXF 631 = tested on: RXF 631
NCI-H522 = tested on: NCI-H522
Malme-3M = tested on: Malme-3M
IGROV-1 = tested on: IGROV-1
U-251 = tested on: U-251
A549 = tested on: A549
SN12C = tested on: SN12C
NCI-H226 = tested on: NCI-H226
TK-10 = tested on: TK-10
M19-MEL = tested on: M19-MEL
OVCAR-3 = tested on: OVCAR-3
HOP-92 = tested on: HOP-92
786-0 = tested on: 786-0
XF498 = tested on: XF498
SNB-19 = tested on: SNB-19
SF-539 = tested on: SF-539
SF-268 = tested on: SF-268
OVCAR-5 = tested on: OVCAR-5
CCRF-CEM = tested on: CCRF-CEM
SNB-78 = tested on: SNB-78
CAKI-1 = tested on: CAKI-1
OVCAR-8 = tested on: OVCAR-8
DMS-273 = tested on: DMS-273
SK-MEL-2 = tested on: SK-MEL-2
SK-OV-3 = tested on: SK-OV-3
RPMI-8226 = tested on: RPMI-8226

`Cc1ccc(NC(=O)CCc2n[nH]c(=S)o2)cc1` was tested, and the GI50 (LOX IMVI) was > 100 µM (inactive), the GI50 (SF-295) was > 100 µM (inactive) and the GI50 (NCI-H23) was > 100 µM (inactive). The GI50 (SK-MEL-5) was > 100 µM (inactive), the GI50 (HOP-62) was > 100 µM (inactive) and the GI50 (DLD-1) was > 100 µM (inactive). The GI50 (HT-29) was > 100 µM (inactive), the GI50 (SR) was > 100 µM (inactive) and the GI50 (MOLT-4) was > 100 µM (inactive). The GI50 (COLO 205) was > 100 µM (inactive), the GI50 (LXFL 529) was > 100 µM (inactive) and the GI50 (A498) was > 100 µM (inactive). For the same molecule, the GI50 (SW-620) was > 100 µM (inactive), the GI50 (UACC-62) was > 86.3 µM (inactive) and the GI50 (HCT-15) was over 100 µM. For the same molecule, the GI50 (RXF 393) was > 100 µM (inactive), the GI50 (SK-MEL-28) was > 100 µM (inactive) and the GI50 (UACC-257) was > 100 µM (inactive). The GI50 (HOP-18) was > 100 µM (inactive), the GI50 (UO-31) was > 100 µM (inactive) and the GI50 (DMS-114) was > 100 µM (inactive). For the same molecule, the GI50 (OVCAR-4) was > 100 µM (inactive), the GI50 (SNB-75) was > 100 µM (inactive) and the GI50 (EKVX) was > 100 µM (inactive). For the same molecule, the GI50 (HCC 2998) was > 100 µM (inactive), the GI50 (HCT-116) was > 100 µM (inactive) and the GI50 (KM12) was > 100 µM (inactive). The GI50 (K562) was 44.6 µM (inactive), the GI50 (ACHN) was > 100 µM (inactive) and the GI50 (HL-60) was > 100 µM (inactive). For the same molecule, the GI50 (M14) was > 100 µM (inactive), the GI50 (NCI-H460) was > 100 µM (inactive) and the GI50 (KM-20L2) was > 72.1 µM (inactive). The GI50 (RXF 631) was > 100 µM (inactive), the GI50 (NCI-H522) was > 100 µM (inactive) and the GI50 (Malme-3M) was > 100 µM (inactive). The GI50 (IGROV-1) was > 100 µM (inactive), the GI50 (U-251) was > 100 µM (inactive) and the GI50 (A549) was > 100 µM (inactive). For the same molecule, the GI50 (SN12C) was > 100 µM (inactive), the GI50 (NCI-H226) was > 100 µM (inactive) and the GI50 (TK-10) was > 100 µM (inactive). For the same molecule, the GI50 (M19-MEL) was > 100 µM (inactive), the GI50 (OVCAR-3) was > 100 µM (inactive) and the GI50 (HOP-92) was > 100 µM (inactive). For the same molecule, the GI50 (786-0) was > 100 µM (inactive), the GI50 (XF498) was > 100 µM (inactive) and the GI50 (SNB-19) was > 100 µM (inactive). The GI50 (SF-539) was > 100 µM (inactive), the GI50 (SF-268) was > 100 µM (inactive) and the GI50 (OVCAR-5) was > 100 µM (inactive). For the same molecule, the GI50 (CCRF-CEM) was 62.8 µM (inactive), the GI50 (SNB-78) was > 100 µM (inactive) and the GI50 (CAKI-1) was > 100 µM (inactive). The GI50 (OVCAR-8) was > 100 µM (inactive) and the GI50 (DMS-273) was > 100 µM (inactive).
`CCCCCN(CCCCC)C(=O)[C@@H](CCC(=O)OCc1ccccc1)NC(=O)c1cc2ccccc2[nH]1` was tested, and the GI50 (LOX IMVI) was > 100 µM (inactive), the GI50 (SF-295) was > 100 µM (inactive) and the GI50 (NCI-H23) was > 100 µM (inactive). For the same molecule, the GI50 (HOP-62) was > 100 µM (inactive), the GI50 (SK-MEL-2) was > 100 µM (inactive) and the GI50 (DLD-1) was > 100 µM (inactive). For the same molecule, the GI50 (HT-29) was > 100 µM (inactive), the GI50 (COLO 205) was 6.18 µM (inactive) and the GI50 (LXFL 529) was 8.85 µM (inactive). The GI50 (A498) was > 100 µM (inactive), the GI50 (SW-620) was > 100 µM (inactive) and the GI50 (UACC-62) was 6.78 µM (inactive). For the same molecule, the GI50 (HCT-15) was over 100 µM, the GI50 (RXF 393) was > 100 µM (inactive) and the GI50 (SK-MEL-28) was > 100 µM (inactive). For the same molecule, the GI50 (UACC-257) was 39.3 µM (inactive), the GI50 (HOP-18) was > 100 µM (inactive) and the GI50 (UO-31) was > 100 µM (inactive). For the same molecule, the GI50 (DMS-114) was > 100 µM (inactive), the GI50 (OVCAR-4) was > 100 µM (inactive) and the GI50 (SNB-75) was > 100 µM (inactive). For the same molecule, the GI50 (EKVX) was > 100 µM (inactive), the GI50 (HCC 2998) was > 100 µM (inactive) and the GI50 (HCT-116) was > 100 µM (inactive). The GI50 (KM12) was 7.67 µM (inactive), the GI50 (K562) was 5.55 µM (inactive) and the GI50 (ACHN) was > 100 µM (inactive). For the same molecule, the GI50 (M14) was > 100 µM (inactive), the GI50 (NCI-H460) was > 100 µM (inactive) and the GI50 (KM-20L2) was > 100 µM (inactive). For the same molecule, the GI50 (SK-OV-3) was > 100 µM (inactive), the GI50 (RXF 631) was > 100 µM (inactive) and the GI50 (NCI-H522) was > 100 µM (inactive). For the same molecule, the GI50 (Malme-3M) was > 100 µM (inactive), the GI50 (IGROV-1) was > 100 µM (inactive) and the GI50 (U-251) was 6.22 µM (inactive). The GI50 (A549) was > 100 µM (inactive), the GI50 (SN12C) was > 100 µM (inactive) and the GI50 (OVCAR-3) was > 100 µM (inactive). For the same molecule, the GI50 (HOP-92) was > 100 µM (inactive), the GI50 (786-0) was > 100 µM (inactive) and the GI50 (SNB-19) was > 100 µM (inactive). For the same molecule, the GI50 (SF-539) was > 100 µM (inactive), the GI50 (SF-268) was > 100 µM (inactive) and the GI50 (OVCAR-5) was > 100 µM (inactive). The GI50 (CCRF-CEM) was > 100 µM (inactive), the GI50 (SNB-78) was > 100 µM (inactive) and the GI50 (CAKI-1) was 8.81 µM (inactive). The GI50 (OVCAR-8) was 6.15 µM (inactive) and the GI50 (DMS-273) was > 100 µM (inactive).
In the case of `CSc1nc(-c2ccccc2)c2c(n1)-c1ccccc1CC2`, the GI50 (LOX IMVI) is reported as > 100 µM (inactive), the GI50 (SF-295) is reported as > 100 µM (inactive) and the GI50 (NCI-H23) is reported as > 100 µM (inactive). For the same molecule, the GI50 (SK-MEL-5) was > 100 µM (inactive), the GI50 (HOP-62) was > 100 µM (inactive) and the GI50 (SK-MEL-2) was > 100 µM (inactive). For the same molecule, the GI50 (DLD-1) was > 100 µM (inactive), the GI50 (HT-29) was 52 µM (inactive) and the GI50 (SR) was > 100 µM (inactive). The GI50 (MOLT-4) was > 100 µM (inactive), the GI50 (COLO 205) was > 100 µM (inactive) and the GI50 (LXFL 529) was > 100 µM (inactive). The GI50 (A498) was > 100 µM (inactive), the GI50 (SW-620) was > 100 µM (inactive) and the GI50 (UACC-62) was > 100 µM (inactive). For the same molecule, the GI50 (RXF 393) was 34.4 µM (inactive), the GI50 (SK-MEL-28) was > 100 µM (inactive) and the GI50 (UACC-257) was > 100 µM (inactive). For the same molecule, the GI50 (HOP-18) was > 100 µM (inactive), the GI50 (UO-31) was > 100 µM (inactive) and the GI50 (DMS-114) was > 100 µM (inactive). The GI50 (OVCAR-4) was > 100 µM (inactive), the GI50 (SNB-75) was > 100 µM (inactive) and the GI50 (EKVX) was > 100 µM (inactive). The GI50 (HCT-116) was > 100 µM (inactive), the GI50 (KM12) was > 100 µM (inactive) and the GI50 (K562) was > 100 µM (inactive). The GI50 (HL-60) was > 100 µM (inactive), the GI50 (M14) was > 100 µM (inactive) and the GI50 (NCI-H460) was > 100 µM (inactive). For the same molecule, the GI50 (KM-20L2) was 78.5 µM (inactive), the GI50 (SK-OV-3) was > 100 µM (inactive) and the GI50 (RXF 631) was > 100 µM (inactive). The GI50 (NCI-H522) was > 100 µM (inactive), the GI50 (Malme-3M) was > 100 µM (inactive) and the GI50 (IGROV-1) was > 100 µM (inactive). The GI50 (U-251) was > 100 µM (inactive), the GI50 (A549) was > 100 µM (inactive) and the GI50 (SN12C) was > 100 µM (inactive). The GI50 (NCI-H226) was > 100 µM (inactive), the GI50 (TK-10) was > 100 µM (inactive) and the GI50 (M19-MEL) was > 100 µM (inactive). For the same molecule, the GI50 (OVCAR-3) was > 100 µM (inactive), the GI50 (HOP-92) was > 100 µM (inactive) and the GI50 (786-0) was > 100 µM (inactive). The GI50 (XF498) was > 100 µM (inactive), the GI50 (SNB-19) was > 100 µM (inactive) and the GI50 (SF-268) was > 100 µM (inactive). The GI50 (RPMI-8226) was > 100 µM (inactive), the GI50 (OVCAR-5) was > 100 µM (inactive) and the GI50 (CCRF-CEM) was > 100 µM (inactive). For the same molecule, the GI50 (CAKI-1) was > 100 µM (inactive) and the GI50 (OVCAR-8) was > 100 µM (inactive).
